Source: publication PMC6149849, “Cymantrenyl-Nucleobases: Synthesis, Anticancer, Antitrypanosomal and Antimicrobial Activity Studies” (Molecules : A Journal of Synthetic Chemistry and Natural …, 2017)

Experiments:
[1] = system: SKOV-3 cells; test: Intracellular ROS, H2DCF-DA fluorescent probe; type: cell-based, human; conditions: SKOV-3, 0.5 × IC50, IC50, 2 × IC50
From the text: Oxidative stress is a part of the cytotoxic activity of many anticancer agents and the production of reactive oxygen species (ROS) is considered as one of the main molecular mechanisms accompanying chemotherapy, radiotherapy, and photodynamic therapy. Since ROS can act as both oxidants and antioxidants, depending on the conditions, pro- and anti-oxidant therapies have been proposed for the treatment of cancer. So far, both ROS scavenging and ROS boosting anticancer therapies have shown promising results in vitro and in vivo [48]. Using an appropriate fluorescence probe, we measured the amount of ROS in cancer cells that were treated with cymantrene derivatives. […] The greatest increase in ROS was observed after […], with the highest concentration of cymantrene conjugates employed (2 × IC50) (Figure 8). […] As compounds 1, 3, 5, and C were effective in the production ROS, as well as in the induction of apoptosis and autophagy, these processes might contribute together to the cytotoxic action of the molecules.
The intracellular ROS were measured with the oxidation-sensitive fluorescent probes 2′,7′-dichlorodihydrofluorescein diacetate (H2DCF-DA) (Sigma-Aldrich, St. Louis, MO, USA), as described elsewhere. The cell-permeant non-fluorescent dye H2DCF-DA is a reduced form of fluorescein that inside the cell, upon cleavage of the acetate groups by intracellular esterases and oxidation by ROS, is converted into the highly fluorescent product 2′,7′-dichlorofluorescein (DCF) (λex/λem: 498/525 nm). For the assay, 2 × 10^4 cells were seeded into wells of black flat-bottom 96-well microplates a day before the experiment. The next day, test compounds were added at concentrations of 0.5 × IC50, 1 × IC50, and 2 × IC50. […] After 24 h incubation, medium was removed, cell monolayers were washed twice with HBSS and 5 µM H2DCF-DA, dissolved in HBSS, was added to each well. The cells were incubated with the fluorescent probe for 30 min in the dark at 37 °C, and then the fluorescence of produced DCF was monitored over a time period of 0–3 h at 15-min intervals with a microplate reader.

[2] = system: Gram-positive bacterial strains, including MRSA and VISA pathogens; test: Antibacterial activity over the panel of strains (summary statements); type: cell-based; conditions: for antibacterial activity in words: reference bacterial strains; for antibacterial activity (range over strains): summary range
Experimental: Organometallic compounds play an increasingly important role in the search for new antibacterial agents. We, therefore, thought to investigate also the bactericidal activity of the newly synthesized cymantrenes 1–7, compound C and CymH. The antibacterial activity of the compounds was tested against Gram-positive methicillin-sensitive Staphylococcus aureus (MSSA), methicillin-resistant S. aureus (MRSA), vancomycin-intermediate S. aureus (VISA), S. epidermidis, and Gram-negative Escherichia coli bacterial strains, and expressed as minimal inhibitory concentration (MIC) values (Table 3).
(§1) The antibacterial activity of CymH, 1–7 and C and the reference drugs penicillin G and polymyxin B was tested by the liquid microdilution method under standard conditions using twofold dilution series, as described in the Clinical and Laboratory Standards Institute (CLSI), reference method M07-A8, and expressed as minimal inhibitory concentration (MIC) values. A panel of Gram-positive bacterial strains, S. aureus ATCC® 29213 (sensitive to methicillin, (MSSA)), S. aureus ATCC® 43300 (resistant to methicillin, (MRSA)), S. aureus ATCC 700787™ (intermediate to vancomycin, (VISA)), and S. epidermidis ATCC 12228™, and one Gram-negative, strain E. coli ATCC BAA-198™ (ESBL) were used. In addition, four clinical isolates of S. aureus (MSSA and MRSA) and two clinical isolates of S. epidermidis that were collected from different patients at the Medical University of Warsaw, Poland, were also tested. The bacterial cells were cultivated on tryptic soy agar (TSA) and nutrient agar (NA), according to ATCC recommendations. All of the strains were incubated at 37 °C. Tested compounds were dissolved in DMSO and then serially diluted twofold with cation-adjusted Mueller-Hinton broth (CAMHB). Then, 95 µL of the dilutions were dispensed into microdilution sterile plates (Mar-Four), followed by the addition of 5 µL of bacteria inoculum containing 5 × 10^4 CFU/mL. The final concentrations of the compounds ranged from 512 to 2 µg/mL. Each compound was tested in triplicate, and Penicillin G (8–0.15 µg/mL) and Polymyxin B (256–0.0625 µg/mL) were used as controls. The plates were incubated at 37 °C for 18 to 24 h depending on the bacterial strain. Thereafter, the absorbance was measured at λ = 540 nm and λ = 595 nm using a Spectrostar Omega microplate reader (BMG Labtech, Offenburg, Germany). The MIC value was defined as the lowest concentration of a compound that reduced the growth by 100%.

[3] = system: human myeloid leukemia HL-60 cells; conditions: cited from earlier work
[4] = system: Clinical S. aureus (MRSA) 44/12; test: Antibacterial liquid microdilution, clinical isolate; type: cell-based, Staphylococcus aureus
Experimental: (§2) This lack of activity against E. coli can be probably explained by an impeded cellular uptake of the compounds through the Gram-negative cell wall that consists of two layers and effective protein efflux pump systems. The antibacterial activities of 1 and C were further tested against four clinical isolates of S. aureus and two clinical isolates of S. epidermidis (Table 4).
as §1

[5] = system: Clinical S. aureus (MRSA) 31/12; test: as above; type: cell-based, Staphylococcus aureus
Experimental: as §2, §1

[6] = system: Clinical S. aureus (MSSA) 30/11; test: as above; type: cell-based, Staphylococcus aureus
Experimental: as §2, §1

[7] = system: Clinical S. aureus (MSSA) 26/11; test: as above; type: cell-based, Staphylococcus aureus
Experimental: as §2, §1

[8] = system: bloodstream forms of T. brucei clone 427-221a; conditions: cited from earlier work
[9] = system: Clinical S. epidermidis (MSSA) 43/12; test: Antibacterial liquid microdilution, clinical isolate; type: cell-based, Staphylococcus epidermidis
Experimental: as §2, §1

[10] = system: Clinical S. epidermidis (MSSA) 37/12; test: as above; type: cell-based, Staphylococcus epidermidis
Experimental: as §2, §1

## O=c1[nH]c(=O)n(CCC(O)[C]23[CH]4[CH]5[CH]6[CH]2[Mn]5643[P](c2ccccc2)(c2ccccc2)c2ccccc2)cc1F.[C-]#[O+].[C-]#[O+] (racemic) [Compound 3]
[1]
  generated intracellular ROS: generated the largest amounts of ROS

## Nc1ncnc2c1ncn2CCC(O)[C]12[CH]3[CH]4[CH]5[CH]1[Mn]4532[P](c1ccccc1)(c1ccccc1)c1ccccc1.[C-]#[O+].[C-]#[O+] (racemic) [Compound 5]
[1]
  generated intracellular ROS: generated the largest amounts of ROS

## Nc1ncnc2c1ncn2CCC(O)[C]12[CH]3[CH]4[CH]5[CH]1[Mn]45321[P](c2ccccc2)(c2ccccc2)CC[P]1(c1ccccc1)c1ccccc1.[C-]#[O+] (racemic) [Compound C]
[2]
  antibacterial activity in words: remarkable potency against all of the Gram-positive bacterial strains
  antibacterial activity (range over strains): 8 to 64 µg/mL
[3]
  GI50: 21.8 ± 8.6 µM
  HL-60 MIC: 100 µM
[1]
  generated intracellular ROS: generated the largest amounts of ROS
[4]
  MIC, Clinical S. aureus (MRSA) 44/12: 32 µg/mL
[5]
  MIC, Clinical S. aureus (MRSA) 31/12: 32 µg/mL
[6]
  MIC, Clinical S. aureus (MSSA) 30/11: 32 µg/mL
[7]
  MIC, Clinical S. aureus (MSSA) 26/11: 32 µg/mL
[8]; HL-60 / T. brucei
  MIC and GI50 ratios of cytotoxic to trypanocidal activities: 7–13
  Selectivity GI50 Ratio: 13.1
  Selectivity MIC Ratio: 10
[8]
  GI50: 1670 ± 370 nM
  T. brucei MIC: 10 µM
[9]
  MIC, Clinical S. epidermidis (MSSA) 43/12: 16 µg/mL
[10]
  MIC, Clinical S. epidermidis (MSSA) 37/12: 16 µg/mL

## O=C(CCn1cc(F)c(=O)[nH]c1=O)[C]12[CH]3[CH]4[CH]5[CH]1[Mn]4532.[C-]#[O+].[C-]#[O+].[C-]#[O+] (centres unmarked) [Compound 1]
[2]
  antibacterial activity in words: remarkable potency against all of the Gram-positive bacterial strains
  antibacterial activity (range over strains): 8 to 64 µg/mL
[1]
  generated intracellular ROS: generated the largest amounts of ROS
[4]
  MIC, Clinical S. aureus (MRSA) 44/12: 32 µg/mL
[5]
  MIC, Clinical S. aureus (MRSA) 31/12: 64 µg/mL
[6]
  MIC, Clinical S. aureus (MSSA) 30/11: 64 µg/mL
[7]
  MIC, Clinical S. aureus (MSSA) 26/11: 32 µg/mL
[9]
  MIC, Clinical S. epidermidis (MSSA) 43/12: 8 µg/mL
[10]
  MIC, Clinical S. epidermidis (MSSA) 37/12: 4 µg/mL

## CCC(=O)[C]12[CH]3[CH]4[CH]5[CH]1[Mn]4532.[C-]#[O+].[C-]#[O+].[C-]#[O+] (centres unmarked) [Compound 7, propionylocymantrene]
[2]
  antibacterial activity in words: not active

## O=[C]=[Mn](=[C]=O)(=[C]=O)[CH]1C=CC=C1 [CymH, tricarbonyl(η^5-cyclopentadienyl)manganese, reference compound]
[2]
  antibacterial activity in words: not active
